According to US11192882B2, “Crystal form of small molecule immune compound, preparation method thereof and pharmaceutical composition containing the same” (SHENZHEN NEPTUNUS PHARMACEUTICAL RESEARCH INSTITUTE CO., …, priority 2018, dated 2021):
Values belong to the molecule of their own block, whether it stands above or below them.

Experiment: Stress testing (accelerated test for 10 days) of the solid: crystal form B and crude product
Format: physicochemical
Details: for Purity compared with day 0 (in words): accelerated test for 10 days
Procedure: Detection instrument: Agilent 1260 series (U.S.)
Chromatographic column: Waters Sunfire C18;
Mobile phase A: water-mobile phase acetonitrile B (80:20);
Column temperature: 40° C.; Detection wavelength: 390 nm.
Detection basis: High performance liquid chromatography method, Pharmacopoeia of the People's Republic of China, Part II Appendix VD
The obtained crystal form B was subjected to stability studies (accelerated test for 10 days), to compare the data of purity, maximum single impurity and total impurities of the new crystal form under the conditions of 60° C., humidity 92.5%, and light irradiation with the data on day 0.
The crude product of (3Z,6Z)-3-[((E)-3-(5-tert-butyl)-1H-imidazolyl-4-yl)meth ylene]-6-((E)-3-(3-fluorophenyl)-2-propenylene)piperazine-2,5-dione was subjected to stability studies (accelerated test for 10 days), to compare the data of purity, maximum single impurity of the crude product stored at 40° C., 60° C. to the data on day 0.

[1] = Day 10, sample 1, no stress condition given

Maximum single impurity (%) (Day 0): 0.24 (RRT: 0.95) %
Purity (%) (Day 0): 99.50%
Total impurities (%) (Day 0): 0.50%
Maximum single impurity (%) (Day 5, 60° C.): 0.24 (RRT: 0.95) %
Purity (%) (Day 5, 60° C.): 99.50%
Total impurities (%) (Day 5, 60° C.): 0.50%
Maximum single impurity (%) (Day 5, humidity 92.5%): 0.24 (RRT: 0.95) %
Purity (%) (Day 5, humidity 92.5%): 99.50%
Total impurities (%) (Day 5, humidity 92.5%): 0.50%
Maximum single impurity (%) (Day 5, light irradiation): 0.26 (RRT: 0.95) %
Purity (%) (Day 5, light irradiation): 99.40%
Total impurities (%) (Day 5, light irradiation): 0.60%
Maximum single impurity (%) (Day 10, 60° C.): 0.24 (RRT: 0.95) %
Purity (%) (Day 10, 60° C.): 99.50%
Total impurities (%) (Day 10, 60° C.): 0.50%
Maximum single impurity (%) (Day 10, humidity 92.5%): 0.24 (RRT: 0.95) %
Purity (%) (Day 10, humidity 92.5%): 99.50%
Total impurities (%) (Day 10, humidity 92.5%): 0.50%
Maximum single impurity (%) (Day 10, light irradiation): 0.26 (RRT: 0.95) %
Purity (%) (Day 10, light irradiation): 99.40%
Total impurities (%) (Day 10, light irradiation): 0.60%
Maximum single impurity (%) [1]: 0.24 (RRT: 0.95) %
Purity (%) [1]: 99.50%
Total impurities (%) [1]: 0.50%
Purity compared with day 0 (in words) (light irradiation): slightly reduced
Purity compared with day 0 (in words) (other conditions (60° C., humidity 92.5%)): stable
Compound: CC(C)(C)c1nc[nH]c1/C=c1\[nH]c(=O)/c(=C/C=C/c2cccc(F)c2)[nH]c1=O [crystal form B, (3Z,6Z)-3-[((E)-3-(5-tert-butyl)-1H-imidazolyl-4-yl)methylene]-6-((E)-3-(3-fluorophenyl)-2-propenylene)piperazine-2,5-dione]

Purity compared with crystal form B under the same conditions (in words) (60° C., day 5 and day 10): lower than that of the crystal form B
Content (%) (crude product, 40° C. Day 5): 99.08%
Maximum single impurity (%) (crude product, 40° C. Day 5): 0.25(RRT: 0.95) %
Content (%) (crude product, 40° C. Day 10): 98.68%
Maximum single impurity (%) (crude product, 40° C. Day 10): 0.50(RRT: 0.95) %
Content (%) (crude product, 60° C. Day 5): 96.89%
Maximum single impurity (%) (crude product, 60° C. Day 5): 1.14(RRT: 0.91) %
Content (%) (crude product, 60° C. Day 10): 95.27%
Maximum single impurity (%) (crude product, 60° C. Day 10): 1.88(RRT: 0.91) %
Content (%) (crude product, Day 0): 99.49%
Maximum single impurity (%) (crude product, Day 0): 0.24(RRT: 0.95) %
Compound: CC(C)(C)c1nc[nH]c1/C=c1\[nH]c(=O)/c(=C/C=C/c2cccc(F)c2)[nH]c1=O [Crude product, (3Z,6Z)-3-[((E)-3-(5-tert-butyl)-1H-imidazolyl-4-yl)methylene]-6-((E)-3-(3-fluorophenyl)-2-propenylene)piperazine-2,5-dione]
